# Data taken from patent US20040214805A1, “Method and compositions for treating pulmonary diseases” (SmithKline Beecham Corporation, priority 1999, published 2004).
# Read-outs that look alike come from different tables or passages of the source.
# Key:
# [1] = test system: patients with mild/moderate asthma; experiment: Cilomalast/low dose inhaled corticosteroid (ICS) dose-ranging study; format: in vivo, human
# Source text: This was a phase IIB, randomised, placebo-controlled, dose-ranging study with a one-week single-blind placebo run-in, a 6-week double-blind treatment phase and a one-week follow-up phase in patients with mild/moderate asthma.
# Study population: Male or female patients aged between 18 and 70 years, with mild to moderate asthma, who were not adequately controlled on low doses of inhaled corticosteroids (no greater than 500 mcg beclomethasone dipropionate/day or equivalent) were eligible. Patients were required to have a screening FEV1 of >50% and <80% predicted for height, age, sex and race and a 12% or greater reversibility after beta-2 agonist administration. Patients had to have a summary symptom score of 6 or more on 4 out of 7 days preceding the baseline visit to be randomised. The sample size was 300 evaluable patients.
# cilomalast was dosed at 5 mg, 10 mg 15 mg twice daily for 6 weeks.
# Subjects were on a median of 500 mcg of beclometbasone equivalent although the mean dose of ICS was 652 mcg.
# Primary endpoint: change from baseline to endpoint in trough clinic expiratory volume in 1 second (FEV1), changes in clinic FEV1 every week and over a 4 hour period following first dose of double-blind medication.
# The primary efficacy measure was defined as the change from baseline to endpoint in trough clinic forced expiratory volume in 1 second (FEV1). Changes in clinic FEV1 were also analysed at each week of the double-blind treatment phase and over a 4-hour period immediately following the first dose of double-blind medication. Secondary efficacy variables were use of inhaled/nebulised beta-2 agonist and overnight asthma symptoms. Tertiary efficacy variables were forced vital capacity (FVC), clinic peak expiratory flow rate (PEFR), forced expiratory flow at 25-75% (FEF25-75) and 75% (FEF75), domiciliary PEFR variability, domiciliary PEFR (morning and evening), summary symptom score (a composite score of overnight, morning and overall daytime asthma), morning asthma, overall daytime asthma, inhaled corticosteroid use, cough, wheeze, breathlessness/chest tightness, asthma exacerbation rates and global assessments by the physician and the patient.
# [2] = test system: patients with mild/moderate asthma on ≧800 mcg of beclomethasone; experiment: Cilomalast/high dose inhaled corticosteroid (ICS) study; format: in vivo, human
# Description: R, DB, PC, DR in patients with mild/moderate asthma on ≧800 mcg of beclomethasone
# cilomalast® doses were 5, 10 and 15 mg twice daily for 4 weeks.
# Primary endpoint: trough clinic FEV1.
# Secondary endpoints: morning PEFR, symptoms, PEFR variability, evening PEFR, clinic PEFR, FEF25-75, FEF75, rescue medication used.
# asthma patients [3] = experiment: Allergen challenge studies (LAR); format: in vivo, human; conditions: Ariflo 15 mg bd
# Source text: Legend: Data on cilomalast was taken from the protocol analysis in asthma patients on <652 mcg of ICS. Data on montelukast (MT), budesonide (BDP) and both was taken from a single study in the Singulair SBA that examined the effect of Singulair relative to inhaled […] corticosteroids.
# [4] = developed as an antidepressant; e.g. pyrosis, nausea and emesis; cited from earlier work
# asthma patients [5] = conditions: comparators, cited from earlier work
smiles,measurement,setting,value
"COc1ccc([C@]2(C#N)CC[C@@H](C(=O)O)CC2)cc1OC1CCCC1 [cilomalast, cis 4-cyano-4-(3-cyclopentyloxy-4-methoxyphenyl)cyclohexan-1-carboxylic acid]","4 hour FEV1, domiciliary PEFR, FEF25-75, physician and patient global assessment scores",[1]; 15 mg BID,Corroborating support
same,"improvement in trough FEV1 at endpoint, ITT analysis, vs placebo","[1]; 15 mg BID, 6 weeks, on low dose ICS, p=0.062, no statistical improvement",0.16 L
same,"improvement in trough FEV1, excluding patients on ICS doses >500 mcg of beclamethasone","[1]; 15 mg BID, p=0.033, significant",0.21 L
same,"dose ordering of response for trough FEV1 at endpoint, ITT analysis","[1]; 5, 10, 15 mg twice daily for 6 weeks",dose-ordered
same,comparison with Singulair when added to low dose ICS,[1]; placebo group also improved in the cilomalast study,outperformed Singulair
same,"4 hour clinic FEV1, clinic FVC, PEFR",[2]; 10 mg BID,numerically superior results
same,"improvement in trough FEV1, repeated measures analysis, patients on <800 mcg of ICS excluded","[2]; 10 mg BID, p=0.009",0.16 L
same,trough concentrations,"[2]; 5, 10, 15 mg twice daily",dose proportional
same,dose ordering for the primary endpoint (trough clinic FEV1),"[2]; 5, 10, 15 mg twice daily, 4 weeks",No dose ordering
same,"change in clinic trough FEV1, ITT analysis","[2]; any dose group (5, 10, 15 mg twice daily, 4 weeks)",No statistically significant change
same,% AUC of LAR (treatment effect),asthma patients [3],3.5%
same,% Max fall LAR (treatment effect),asthma patients [3],1.3%
same,% Protection AUC LAR,asthma patients [3],NONE
same,% Protection max fall LAR,asthma patients [3],NONE
COc1ccc(C2CNC(=O)C2)cc1OC1CCCC1 (stereo not shown) [rolipram],side effects in clinical studies,[4],produces gastrointestinal effects
O=C(Nc1cccc2c(=O)cc(-c3nnn[nH]3)oc12)c1ccc(OCCCCc2ccccc2)cc1 [Ultair],% Max fall LAR (treatment effect),asthma patients [5]; ICS = 800 mcg budesonide,10.7%
same,% Protection max fall LAR,asthma patients [5]; ICS = 800 mcg budesonide,30.8%
same,% AUC of LAR (treatment effect),asthma patients [5],42.4%
same,% Protection AUC LAR,asthma patients [5],42.6%
